Entries after “also recorded” stand apart in the source; their conditions may differ.
Assays:
[1] = Hygroscopicity of the crystal structure; assay type: physicochemical
[2] = Hydration and dehydration (interconversion) studies of crystal structures, checked by X-ray powder pattern; assay type: physicochemical; conditions: for crystal structure after incubation in humid chamber (H2O vapor) at 25° C. / crystal structure after incubation in humid chamber (H2O vapor) at 70° C.: 48 h
Description: X-ray powder patterns were measured with a β-Generator Philips PW 1120/90 equipped with a CuKα Guinier-de Wolff Camera No. 11 (Enraf-Nonius).
Starting from different crystal structures, hydration and dehydration studies were performed (FIG. 1, Table 2). The crystal structure designated Type I (lot NTA-107-B) is obtained by equilibration of Type II (lot NTA-107-A) with water vapor in a humid chamber, whereas Type III was generated by dehydration of Type I in a vacuum drying oven at elevated temperature (Tables 1 and 2). The X-ray powder patterns of the Type I and II crystal structures are not sensitive to small changes in the water content and appear uniform from batch to batch.
The well-resolved powder diagrams of these two forms indicate well ordered crystal lattice structures (FIG. 3). […] The manufacturing process leads to a water-soluble (5% w/v) crystalline product of the monopotassium salt of N-4-carboxyphenyl-3-(6-oxohydropurin-9-yl) propanamide monohydrate Type I (active pharmaceutical ingredient). N-4-carboxyphenyl-3-(6-oxohydropurin-9-yl) propanamide monopotassium salt exists, as known so far, in three different crystal structures (Types I-III) depending upon the water content.

[3] = assay type: physicochemical
Text: The occurrence of polymorphic forms can be examined by various physico-chemical investigation techniques. The solubility measured under defined conditions can provide information regarding the occurrence of different crystal structures. However, the preferred technique for the investigation of the polymorphism of N-4-carboxyphenyl-3-(6-oxohydropurin-9-yl) propanamide monopotassium salt is the analysis of the X-ray diffraction powder diagrams, which allows the distinct crystal structures to be clearly distinguished by their characteristic powder patterns. The powder pattern, position, intensity and sharpness of the bands are dependent upon the crystal structure and the fine arrangement of the atoms in the crystal lattice, which in turn are both influenced by the content of crystal water. For this study, material from different batches of N-4-carboxyphenyl-3-(6-oxohydropurin-9-yl) propanamide monopotassium salt was used, either in the original or in a dry or wet state (Table 1).
In aqueous solutions prepared with material which was synthesized by the route designated “direct crystallization” a fine microcrystalline precipitate of the N-4-carboxyphenyl-3-(6-oxohydropurin-9-yl) propanamide free acid was formed after 2-3 min. Although the assay of K is 1.0 equivalent and although direct crystallized K-salt is isolated at equal or slightly higher pH (H 8.7) than K-salt synthesized from N-4-carboxyphenyl-3-(6-oxohydropurin-9-yl) propanamide free acid (pH 8.5), only the latter is completely soluble in water. […] The free acid precipitates and generates the di-K salt until its concentration is high enough to keep the precipitation and dissolution of the free acid at equilibrium. The solubility of N-4-carboxyphenyl-3-(6-oxohydropurin-9-yl) propanamide Type II (lot Am 960/a) in aqueous solution was measured as a function of temperature (FIG. 2). In the solubility curve a plateau is reached at 70° C. (17% w/w).

## O.O=C(CCn1cnc2c(=O)[nH]cnc21)Nc1ccc(C(=O)[O-])cc1.[K+] [Type I, N-4-carboxyphenyl-3-(6-oxohydropurin-9-yl) propanamide monopotassium salt monohydrate]
[1]
  hygroscopicity: only slightly hygroscopic
[2]; monopotassium salt monohydrate
  crystal structure after incubation in humid chamber (H2O vapor) at 25° C.: stable; also recorded: remains unchanged; also recorded: Type I
  crystal structure after incubation in humid chamber (H2O vapor) at 70° C.: stable; also recorded: remains unchanged; also recorded: Type I
[2]; 140° C., 5 mbar, monopotassium salt monohydrate
  crystal structure after strong drying in vacuum oven: Type III was obtained

## O=C(CCn1cnc2c(=O)[nH]cnc21)Nc1ccc(C(=O)[O-])cc1.[K+] [Type II, N-4-carboxyphenyl-3-(6-oxohydropurin-9-yl) propanamide monopotassium salt]
[3]
  solubility in aqueous solution as a function of temperature, plateau of solubility curve: 17 % w/w
  solubility in water: about 10 % (w/v)
[2]; monopotassium salt
  crystal structure after incubation in humid chamber (H2O vapor) at 25° C.: Type II
  crystal structure after incubation in humid chamber (H2O vapor) at 70° C.: interconversion of Type II into Type I crystal structure

## O=C(CCn1cnc2c(=O)[nH]cnc21)Nc1ccc(C(=O)[O-])cc1.[K+] [Type III, N-4-carboxyphenyl-3-(6-oxohydropurin-9-yl) propanamide monopotassium salt]
[2]; monopotassium salt
  crystal structure after incubation in humid chamber (H2O vapor) at 25° C.: turns completely into Type I

## O=C(CCn1cnc2c(=O)[nH]cnc21)Nc1ccc(C(=O)O)cc1 [free acid, N-4-carboxyphenyl-3-(6-oxohydropurin-9-yl) propanamide]
[3]
  solubility of the free acid in water: extreme low solubility

Source: patent publication US6407237B1, “Crystal forms of 9-substituted hypoxanthine derivatives” (NeoTherapeutics, Inc., priority 2000, dated 2002)
